Reference: patent US20260109721A1, “IONIZABLE CATIONIC LIPIDS INCORPORATING SILICON: SYNTHESIS AND LNP FORMULATION” (priority 2023, published 2026)

What was measured:
[1] = system: HeLa cells; assay: Cell viability assessment with resazurin assay (Method A); format: cell-based; conditions: human
How it was run: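 Viability is given as percent of control metabolic activity: background-corrected resorufin fluorescence (ex 540, em 610 nm), with OptiMEM-only wells set to 100%. Resazurin at 0.025 mg/ml in DMEM/F12 with 10% FCS was applied to LNP-transfected HeLa cells for 50 min at 37 °C.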

[2] = system: HepG2 cell line; assay: In vitro toxicity study on HepG2 cell line (resazurin, viability and IC50); format: cell-based, human; conditions: resazurin; for Viability (%) at different lipid concentrations, mean: HepG2 cells, 48 h post-treatment, relative to ethanol vehicle controls; for IC50: Homo sapiens, lipid toxicity, HepG2, 48 h post-treatment, 6.25-800 μM, read-out: IC50 value, μM (on HepG2 cell)
How it was run: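 Resazurin read-out (ex 530/em 580 nm, 5 h at 37 °C) measured lipid toxicity 48 h after dosing HepG2 cells (1000/well) at 6.25–800 μM. Viability was normalised to ethanol vehicle, and IC50 was derived from concentration-response curves.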

| Compound | Cell Viability % (Average metabolic rate over all doses, Resazurin) [1] [%] | Viability (%) at different lipid concentrations, mean ([2]; 6.25 μM lipid) [%] | Viability (%) at different lipid concentrations, mean ([2]; 12.5 μM lipid) [%] | Viability (%) at different lipid concentrations, mean ([2]; 25 μM lipid) [%] | Viability (%) at different lipid concentrations, mean ([2]; 50 μM lipid) [%] | Viability (%) at different lipid concentrations, mean ([2]; 100 μM lipid) [%] | Viability (%) at different lipid concentrations, mean ([2]; 200 μM lipid) [%] | Viability (%) at different lipid concentrations, mean ([2]; 400 μM lipid) [%] | Viability (%) at different lipid concentrations, mean ([2]; 800 μM lipid) [%] | IC50 [2] [µM] |
| --- | --- | --- | --- | --- | --- | --- | --- | --- | --- | --- |
| CCCCC/C=C\C/C=C\CCCCCCCCOC(CCCCCCC/C=C\C/C=C\CCCCC)O[Si](C)(C)OCCCCCCN(C)CC(O)CO (centres unmarked) [Example 59, (24Z,27Z)-14-((8Z,11Z)-heptadeca-8,11-dien-1-yl)-4,12,12-trimethyl-11,13,15-trioxa-4-aza-12-silatritriaconta-24,27-diene-1,2-diol] | 90 | 97.3 | 100.1 | 112.6 | 112.9 | 76.9 | 29.0 | 18.1 | 8.3 | 149 |
| CCCCC/C=C\C/C=C\CCCCCCCCOC(CCCCCCC/C=C\C/C=C\CCCCC)O[Si](C)(C)OCCCCCCN(C)CCCCO (centres unmarked) [Example 60, (25Z,28Z)-15-((8Z,11Z)-heptadeca-8,11-dien-1-yl)-5,13,13-trimethyl-12,14,16-trioxa-5-aza-13-silatetratriaconta-25,28-dien-1-ol] | 88 | 100.0 | 99.3 | 98.4 | 107.2 | 117.1 | 101.1 | 73.6 | 35.2 | 310 |
| CCCCC/C=C\C/C=C\CCCCCCCCOC(CCCCCCC/C=C\C/C=C\CCCCC)O[Si](C)(C)OCCCCCCN(CCCCO)CCCCO (centres unmarked) [Example 62, (25Z,28Z)-15-((8Z,11Z)-heptadeca-8,11-dien-1-yl)-5-(4-hydroxybutyl)-13,13-dimethyl-12,14,16-trioxa-5-aza-13-silatetratriaconta-25,28-dien-1-ol] | 89 | 100.4 | 110.2 | 122.5 | 116.9 | 68.2 | 13.2 | −0.6 | −0.7 | 113 |
| CCCCC/C=C\C/C=C\CCCCCCCCOC(CCCCCCC/C=C\C/C=C\CCCCC)O[Si](C)(C)OCCCCCCN1CCCCC1CO (centres unmarked) [Example 64, (1-((20Z,23Z)-10-((8Z,11Z)-heptadeca-8,11-dien-1-yl)-8,8-dimethyl-7,9,11-trioxa-8-silanonacosa-20,23-dien-1-yl)piperidin-2-yl)methanol] | 100 | 99.5 | 98.7 | 100.3 | 97.8 | 97.8 | 91.7 | 80.3 | 47.4 | 775 |
| CCCCC/C=C\C/C=C\CCCCCCCCOC(CCCCCN(C)CC(O)CO)O[Si](C)(C)OCCCCCCCC/C=C\C/C=C\CCCCC (centres unmarked) [Example 66, (22Z,25Z)-4,12,12-trimethyl-10-(((9Z,12Z)-octadeca-9,12-dien-1-yl)oxy)-11,13-dioxa-4-aza-12-silahentriaconta-22,25-diene-1,2-diol] | 91 | 100.5 | 97.9 | 97.2 | 96.5 | 94.2 | 95.5 | 86.0 | 42.6 | 164 |
| C#CCN(C)CCCCCCO[Si](C)(C)OC(CCCCCCC/C=C\C/C=C\CCCCC)OCCCCCCCC/C=C\C/C=C\CCCCC (centres unmarked) [Example 67, (20Z,23Z)-10-((8Z,11Z)-heptadeca-8,11-dien-1-yl)-N,8,8-trimethyl-N-(prop-2-yn-1-yl)-7,9,11-trioxa-8-silanonacosa-20,23-dien-1-amine] | 94 | 100.2 | 97.1 | 99.5 | 95.6 | 92.6 | 24.8 | 3.0 | 1.7 | – |
| CCCCC/C=C\C/C=C\CCCCCCCCOC(CCCCCCC/C=C\C/C=C\CCCCC)O[Si](C)(C)OCCCCCCN(C)Cc1cn(C2[C@H](O)O[C@H](CO)[C@@H](O)[C@@H]2O)nn1 (stereo partly drawn) [Example 68, (4R,5S,6R)-3-(4-((22Z,25Z)-12-((8Z,11Z)-heptadeca-8,11-dien-1-yl)-2,10,10-trimethyl-9,11,13-trioxa-2-aza-10-silahentriaconta-22,25-dien-1-yl)-1H-1,2,3-triazol-1-yl)-6-(hydroxymethyl)tetrahydro-2H-pyran-2,4,5-triol] | 92 | 99.4 | 97.7 | 107.3 | 120.2 | 117.6 | 103.6 | 68.1 | 12.3 | 461 |
| CCCCC/C=C\C/C=C\CCCCCCCCOC(CCCCCCC/C=C\C/C=C\CCCCC)O[Si](C)(C)OCCCCCCN(CCO)CCN(CCO)CCCCCCO[Si](C)(C)OC(CCCCCCC/C=C\C/C=C\CCCCC)OCCCCCCCC/C=C\C/C=C\CCCCC (centres unmarked) [Example 71, (26Z,29Z)-16-((8Z,11Z)-heptadeca-8,11-dien-1-yl)-3-((20Z,23Z)-10-((8Z,11Z)-heptadeca-8,11-dien-1-yl)-8,8-dimethyl-7,9,11-trioxa-8-silanonacosa-20,23-dien-1-yl)-6-(2-hydroxyethyl)-14,14-dimethyl-13,15,17-trioxa-3,6-diaza-14-silapentatriaconta-26,29-dien-1-ol] | 85 | 102.71 | 102.5 | 106.2 | 107.61 | 93.09 | 72.87 | 39.19 | 9.92 | 321 |
| CCCCCCCC/C=C\CCCCCCCC(OCC(CCCCCCCC)SCCCCC)O[Si](C)(C)OCCCCCCN(CCO)CCO (centres unmarked) [Example 72, (Z)-13-(heptadec-8-en-1-yl)-3-(2-hydroxyethyl)-11,11-dimethyl-16-octyl-10,12,14-trioxa-17-thia-3-aza-11-siladocosan-1-ol] | 107 | 104.3 | 94.1 | 102.5 | 101.6 | 100.3 | 96.6 | 110.6 | 103.0 | > 800 |
